# Laboratory results reported in article PMC9525273 (Nature Communications, 2022).
# “And” between values parts separate entries of the source, which are not always exact repeats. Equal entries are not always repeated. Where two headings read alike, the source gives them in different places.
# Biological target: T1, TgATP4^WT (membranes from T. gondii tachyzoites) (Toxoplasma gondii, UniProt B9QMJ0)
# T1 sequence (B9QMJ0 1-1338): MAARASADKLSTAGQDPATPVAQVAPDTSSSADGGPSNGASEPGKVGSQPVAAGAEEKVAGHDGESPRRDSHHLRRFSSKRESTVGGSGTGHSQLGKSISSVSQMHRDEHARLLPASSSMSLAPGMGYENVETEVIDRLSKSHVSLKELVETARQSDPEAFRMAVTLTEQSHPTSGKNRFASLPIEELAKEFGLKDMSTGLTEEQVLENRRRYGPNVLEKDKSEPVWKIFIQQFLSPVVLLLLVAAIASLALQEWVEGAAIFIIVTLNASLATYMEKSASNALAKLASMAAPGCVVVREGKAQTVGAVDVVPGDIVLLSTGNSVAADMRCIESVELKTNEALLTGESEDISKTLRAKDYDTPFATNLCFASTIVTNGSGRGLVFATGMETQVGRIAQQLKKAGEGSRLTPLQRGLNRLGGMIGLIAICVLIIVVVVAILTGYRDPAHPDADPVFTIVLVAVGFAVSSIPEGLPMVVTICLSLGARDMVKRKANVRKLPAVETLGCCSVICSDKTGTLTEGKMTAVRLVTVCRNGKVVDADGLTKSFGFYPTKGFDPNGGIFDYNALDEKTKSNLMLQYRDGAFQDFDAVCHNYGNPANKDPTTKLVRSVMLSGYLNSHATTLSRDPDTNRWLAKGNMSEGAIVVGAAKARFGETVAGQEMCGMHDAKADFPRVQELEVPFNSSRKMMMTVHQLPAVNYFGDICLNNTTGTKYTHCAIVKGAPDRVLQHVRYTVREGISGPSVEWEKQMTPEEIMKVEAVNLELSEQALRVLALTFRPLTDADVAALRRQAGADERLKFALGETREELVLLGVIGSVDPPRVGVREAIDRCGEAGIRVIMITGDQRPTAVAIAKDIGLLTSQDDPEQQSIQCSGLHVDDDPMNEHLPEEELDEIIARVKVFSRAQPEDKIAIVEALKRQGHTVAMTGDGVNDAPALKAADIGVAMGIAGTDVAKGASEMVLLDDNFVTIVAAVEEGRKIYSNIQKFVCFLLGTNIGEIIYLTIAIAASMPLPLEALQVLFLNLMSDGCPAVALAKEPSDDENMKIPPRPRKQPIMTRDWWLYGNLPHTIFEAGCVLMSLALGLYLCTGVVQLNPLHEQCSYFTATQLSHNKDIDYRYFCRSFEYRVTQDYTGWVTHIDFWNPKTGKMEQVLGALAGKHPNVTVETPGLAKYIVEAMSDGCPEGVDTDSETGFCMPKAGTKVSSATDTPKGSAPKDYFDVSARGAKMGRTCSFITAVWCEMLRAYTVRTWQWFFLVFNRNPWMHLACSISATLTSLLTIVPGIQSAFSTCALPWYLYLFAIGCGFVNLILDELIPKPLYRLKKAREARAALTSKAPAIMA
# Assay: Membrane ATPase assay, ATP4-associated (Na+-dependent) ATPase activity
# Type: biochemical
# Set-up: IC50 for inhibition of ATP4-associated ATPase activity, MEAN: unit: nM
# Details: for IC50 for inhibition of ATP4-associated ATPase activity, MEAN: WT T. gondii membranes, source data of Table 1 (nM there); for IC50 for ATP4-associated ATPase activity: membranes from WT T. gondii (TgATP4WT), mean ± SEM
# Experimental: Membranes from isolated P. falciparum or extracellular T. gondii parasites were prepared by lysing parasites in ice-cold deionized water containing a 1:500 dilution of Protease Inhibitor Cocktail Set III (Merck Millipore), then washing the membrane preparation three times in ice-cold deionized water (with protease inhibitors present for the first two washes)[15]. Protein concentrations in the membrane preparations were measured using a Bradford assay. The PiColorLock Gold Phosphate Detection System (Innova Biosciences) was used to measure the production of Pi from hydrolysis of ATP[15]. Membrane preparations were diluted in either a high Na^+ solution (yielding final conditions in the reactions of 150 mM NaCl, 20 mM KCl, 2 mM MgCl2, 50 mM Tris, pH 7.2) or a Na^+-free solution (yielding final conditions of 150 mM choline chloride, 20 mM KCl, 2 mM MgCl2, 50 mM Tris, pH 7.2) to achieve a total protein concentration of 50 μg/mL. […] The reactions were performed at 37 °C, and were initiated by the addition of 1 mM ATP (Na2ATP۰3H2O; MP Biomedicals) and terminated 10 min later by adding 100 μL of reaction mixture (in duplicate) to 25 μL “Gold mix” in a 96-well plate. “Stabiliser” was added 3 min later, and the plates incubated at room temperature in the dark for 60 min before measuring absorbance at 635 nm. Background values (averaged from wells containing all components, but to which ATP was not added until after the membrane was exposed to Gold mix) were subtracted from the data. For each treatment, the ATPase activity associated with the (Na^+-dependent) PfATP4 and TgATP4 proteins was calculated by subtracting data obtained in the low Na^+ condition (containing only the 2 mM Na^+ introduced on addition of 1 mM Na2ATP) from that obtained in the high Na^+ condition.
structure (smiles),measurement,setting,value
N#Cc1cc(NC(=O)[C@H]2c3ccccc3C(=O)N(CC(F)(F)F)[C@@H]2c2cccnc2)ccc1F [(+)-SJ733],"IC50 for inhibition of ATP4-associated ATPase activity, MEAN",MEAN,17.77
same,remaining activity at 0.000122 µM,"WT T. gondii, [(+)-SJ733] 0.122 nM, MEAN, read-out: TgATP4-associated ATPase activity (% of control)",105%
same,TgATP4-associated ATPase activity (% of control),"WT T. gondii, [(+)-SJ733] 0.122 nM, single experiments, 0.000122 µM",99.5 % of control and 113.7 % of control
same,remaining activity at 0.000122 µM,"WT T. gondii, [(+)-SJ733] 0.122 nM, single experiments, read-out: TgATP4-associated ATPase activity (% of control)",102%
same,remaining activity at 0.000244 µM,"WT T. gondii, [(+)-SJ733] 0.244 nM, MEAN, read-out: TgATP4-associated ATPase activity (% of control)",104%
same,TgATP4-associated ATPase activity (% of control),"WT T. gondii, [(+)-SJ733] 0.244 nM, single experiments, 0.000244 µM",103.7 % of control and 108.4 % of control
same,remaining activity at 0.000244 µM,"WT T. gondii, [(+)-SJ733] 0.244 nM, single experiments, read-out: TgATP4-associated ATPase activity (% of control)",99.9%
same,remaining activity at 0.0005 µM,"WT T. gondii, [(+)-SJ733] 0.5 nM, MEAN, read-out: TgATP4-associated ATPase activity (% of control)",93.6%
same,TgATP4-associated ATPase activity (% of control),"WT T. gondii, [(+)-SJ733] 0.5 nM, single experiments, 0.0005 µM",96.1 % of control and 95.1 % of control
same,remaining activity at 0.0005 µM,"WT T. gondii, [(+)-SJ733] 0.5 nM, single experiments, read-out: TgATP4-associated ATPase activity (% of control)",89.6%
same,remaining activity at 0.001 µM,"WT T. gondii, [(+)-SJ733] 1.0 nM, MEAN, read-out: TgATP4-associated ATPase activity (% of control)",102%
same,TgATP4-associated ATPase activity (% of control),"WT T. gondii, [(+)-SJ733] 1.0 nM, single experiments, 0.001 µM",96.8 % of control and 112.7 % of control
same,remaining activity at 0.001 µM,"WT T. gondii, [(+)-SJ733] 1.0 nM, single experiments, read-out: TgATP4-associated ATPase activity (% of control)",94.9%
same,remaining activity at 0.002 µM,"WT T. gondii, [(+)-SJ733] 2.0 nM, MEAN, read-out: TgATP4-associated ATPase activity (% of control)",95.7%
same,TgATP4-associated ATPase activity (% of control),"WT T. gondii, [(+)-SJ733] 2.0 nM, single experiments, 0.002 µM",71.9 % of control and 96.8 % of control and 118.4 % of control
same,remaining activity at 0.0039 µM,"WT T. gondii, [(+)-SJ733] 3.9 nM, MEAN, read-out: TgATP4-associated ATPase activity (% of control)",90.6%
same,TgATP4-associated ATPase activity (% of control),"WT T. gondii, [(+)-SJ733] 3.9 nM, single experiments, 0.0039 µM",69.6 % of control and 88.2 % of control and 113.9 % of control
same,remaining activity at 0.0078 µM,"WT T. gondii, [(+)-SJ733] 7.8 nM, MEAN, read-out: TgATP4-associated ATPase activity (% of control)",78.4%
same,TgATP4-associated ATPase activity (% of control),"WT T. gondii, [(+)-SJ733] 7.8 nM, single experiments, 0.0078 µM",63.9 % of control and 63.6 % of control and 107.7 % of control
same,remaining activity at 0.0156 µM,"WT T. gondii, [(+)-SJ733] 15.6 nM, MEAN, read-out: TgATP4-associated ATPase activity (% of control)",52.5%
same,remaining activity at 0.0313 µM,"WT T. gondii, [(+)-SJ733] 31.3 nM, MEAN, read-out: TgATP4-associated ATPase activity (% of control)",42.7%
same,remaining activity at 0.0625 µM,"WT T. gondii, [(+)-SJ733] 62.5 nM, MEAN, read-out: TgATP4-associated ATPase activity (% of control)",31.7%
same,remaining activity at 0.25 µM,"WT T. gondii, [(+)-SJ733] 250 nM, MEAN, read-out: TgATP4-associated ATPase activity (% of control)",20.9%
same,remaining activity at 0.5 µM,"WT T. gondii, [(+)-SJ733] 500 nM, MEAN, read-out: TgATP4-associated ATPase activity (% of control)",14.7%
same,IC50 for ATP4-associated ATPase activity,,17.8 ± 9.2 (3) nM
C[C@H]1Cc2c([nH]c3cc(Cl)c(F)cc23)[C@@]2(N1)C(=O)Nc1ccc(Cl)cc12 [Cipargamin],"IC50 for inhibition of ATP4-associated ATPase activity, MEAN",MEAN,8.39
same,remaining activity at 60 pM,"WT T. gondii, Cipargamin 0.06 nM, MEAN, read-out: TgATP4-associated ATPase activity (% of control)",98.4%
same,TgATP4-associated ATPase activity (% of control),"WT T. gondii, Cipargamin 0.06 nM, single experiments",98.0 % of control
same,remaining activity at 60 pM,"WT T. gondii, Cipargamin 0.06 nM, single experiments, read-out: TgATP4-associated ATPase activity (% of control)",98.9%
same,remaining activity at 0.00012 µM,"WT T. gondii, Cipargamin 0.12 nM, MEAN, read-out: TgATP4-associated ATPase activity (% of control)",101%
same,TgATP4-associated ATPase activity (% of control),"WT T. gondii, Cipargamin 0.12 nM, single experiments",100.0 % of control and 99.7 % of control and 103.4 % of control
same,remaining activity at 0.00012 µM,"WT T. gondii, Cipargamin 0.12 nM, single experiments, read-out: TgATP4-associated ATPase activity (% of control)",100%
same,remaining activity at 0.00024 µM,"WT T. gondii, Cipargamin 0.24 nM, MEAN, read-out: TgATP4-associated ATPase activity (% of control)",91.8%
same,TgATP4-associated ATPase activity (% of control),"WT T. gondii, Cipargamin 0.24 nM, single experiments",81.4 % of control and 81.6 % of control and 107.2 % of control and 96.9 % of control
same,remaining activity at 0.00049 µM,"WT T. gondii, Cipargamin 0.49 nM, MEAN, read-out: TgATP4-associated ATPase activity (% of control)",76.3%
same,remaining activity at 0.00098 µM,"WT T. gondii, Cipargamin 0.98 nM, MEAN, read-out: TgATP4-associated ATPase activity (% of control)",66.1%
same,remaining activity at 0.00195 µM,"WT T. gondii, Cipargamin 1.95 nM, MEAN, read-out: TgATP4-associated ATPase activity (% of control)",47.3%
same,remaining activity at 0.0039 µM,"WT T. gondii, [cipargamin] 3.9 nM, MEAN, read-out: TgATP4-associated ATPase activity (% of control)",34.5%
same,remaining activity at 0.0078 µM,"WT T. gondii, [cipargamin] 7.8 nM, MEAN, read-out: TgATP4-associated ATPase activity (% of control)",38.1%
same,remaining activity at 0.0156 µM,"WT T. gondii, [cipargamin] 15.6 nM, MEAN, read-out: TgATP4-associated ATPase activity (% of control)",21.9%
same,remaining activity at 0.0313 µM,"WT T. gondii, [cipargamin] 31.3 nM, MEAN, read-out: TgATP4-associated ATPase activity (% of control)",13.1%
same,remaining activity at 0.0625 µM,"WT T. gondii, [cipargamin] 62.5 nM, MEAN, read-out: TgATP4-associated ATPase activity (% of control)",6.8%
same,IC50 for ATP4-associated ATPase activity,,8.4 ± 5.8 (4) nM
